According to patent publication US20250136594A1 (Tango Therapeutics, Inc., priority 2022, published 2025):

Experiments:
[1] = test system: HAP1 MTAP-deleted cell line; assay: Viability assay, HAP1 MTAP-deleted cell line; format: cell-based; settings: Homo sapiens; viability assay, HAP1 MTAP-deleted cell line; read-out: Hap1 MTAP deleted viability IC50
[2] = test system: SDMA in HAP1 MTAP-intact cell line (PRMT5 inhibition); assay: SDMA in-cell western assay, HAP1 MTAP-intact cell line; settings: Homo sapiens, HAP1, read-out: Hap1 MTAP intact IC50
[3] = test system: SDMA in HAP1 MTAP-deleted (MTAP-null) cell line (PRMT5 inhibition); assay: SDMA in-cell western assay, HAP1 MTAP-deleted cell line; settings: for IC50 / IC90: Homo sapiens; for IC50: HAP1, read-out: Hap1 MTAP deleted IC50; for IC90: HAP1, read-out: Hap1 MTAP deleted IC90; for Hap1 MTAP intact/deleted ratio: ratio of SDMA IC50 in HAP1 MTAP-intact to HAP1 MTAP-deleted cell line

Compound	IC50 [2] [nM]	IC50 [3] [nM]	IC90 [3] [nM]	IC50 [1] [nM]	Hap1 MTAP intact/deleted ratio [3]
CCC(C)CN(Cc1ccccn1)C(=O)C(=O)Nc1cnc(N)c2cn[nH]c12 (centres unmarked) [Compound 152, N-(4-amino-1H-pyrazolo[4,3-c]pyridin-7-yl)-N′-(2-methylbutyl)-N′-(2-pyridylmethyl)oxamide]	> 50	< 5	< 75	< 100	A (IC50 ratio greater than or equal to 30 fold)
CC(C)CN(Cc1ccccc1)C(=O)C(=O)Nc1cnc(N)c2cn[nH]c12 [Compound 101, N-(4-amino-1H-pyrazolo[4,3-c]pyridin-7-yl)-N′-benzyl-N′-isobutyl-oxamide]	> 50	< 5	75 to 125	< 100	A (IC50 ratio greater than or equal to 30 fold)
CC1CCC(N(Cc2ccc(C(F)(F)F)cn2)C(=O)C(=O)Nc2cncc3cn[nH]c23)c2ccccc21 (centres unmarked) [Compound 17, N′-(4-methyltetralin-1-yl)-N-(1H-pyrazolo[4,3-c]pyridin-7-yl)-N′-[[5-(trifluoromethyl)-2-pyridyl]methyl]oxamide]	> 50	5 to 50	> 125	< 100	C (IC50 ratio of less than 15 fold)
C[C@@H](c1ccc(C(F)(F)C(F)(F)F)cc1)N(C)C(=O)C(=O)Nc1cnc(N)c2c1cnn2C [Compound 83, N-(7-Amino-1-methyl-pyrazolo[3,4-c]pyridin-4-yl)-N′-methyl-N′—[(1S)-1-[4-(1,1,2,2,2-pentafluoroethyl)phenyl]ethyl]oxamide]	> 50	5 to 50	> 125	100 to 1000	A (IC50 ratio greater than or equal to 30 fold)
Nc1ncc(NC(=O)C(=O)N(Cc2ccccc2)Cc2ccc(F)cn2)c2[nH]ncc12 [Compound 68, N-(4-amino-1H-pyrazolo[4,3-c]pyridin-7-yl)-N′-benzyl-N′-[(5-fluoro-2-pyridyl)methyl]oxamide]	> 50	< 5	< 75	< 100	A (IC50 ratio greater than or equal to 30 fold)
Cc1ccccc1CN(CC(C)C)C(=O)C(=O)Nc1cnc(N)c2cn[nH]c12 [Compound 185, N-(4-amino-1H-pyrazolo[4,3-c]pyridin-7-yl)-N′-isobutyl-N′-(o-tolylmethyl)oxamide]	> 50	< 5	< 75	< 100	A (IC50 ratio greater than or equal to 30 fold)
Nc1ncc(NC(=O)C(=O)N(Cc2ccccc2)Cc2ccccn2)c2[nH]ncc12 [Compound 9, N-(4-amino-1H-pyrazolo[4,3-c]pyridin-7-yl)-N′-benzyl-N′-(2-pyridylmethyl)oxamide]	> 50	< 5	< 75	< 100	A (IC50 ratio greater than or equal to 30 fold)
O=C(Nc1cncc2cn[nH]c12)C(=O)N(Cc1ccc(C(F)(F)F)cn1)[C@@H]1CCc2ccccc21 [Compound 26, (R)—N^1-(2,3-dihydro-1H-inden-1-yl)-N^2-(1H-pyrazolo[4,3-c]pyridin-7-yl)-N^1-((5-(trifluoromethyl)pyridin-2-yl)methyl)oxalamide]	> 50	< 5	75 to 125	100 to 1000	B (IC50 ratio greater than or equal to 15 fold but lower than 30 fold)
C[C@@H](c1ccc(C(F)(F)C(F)(F)F)cc1)N(C)C(=O)C(=O)Nc1cnc(N)c2cn[nH]c12 [Compound 131, N-(4-amino-1H-pyrazolo[4,3-c]pyridin-7-yl)-N′-methyl-N′—[(1S)-1-[4-(1,1,2,2,2-pentafluoroethyl)phenyl]ethyl]oxamide]	> 50	5 to 50	> 125	< 100	A (IC50 ratio greater than or equal to 30 fold)
C[C@@H](c1ccc(C(F)(F)F)cn1)N(C)C(=O)C(=O)Nc1cnc(N)c2cn[nH]c12 [Compound 127, N-(4-amino-1H-pyrazolo[4,3-c]pyridin-7-yl)-N′-methyl-N′—[(1S)-1-[5-(trifluoromethyl)-2-pyridyl]ethyl]oxamide]	> 50	5 to 50	> 125	100 to 1000	A (IC50 ratio greater than or equal to 30 fold)
CCN(Cc1ccc(S(F)(F)(F)(F)F)cc1C)C(=O)C(=O)Nc1cnc(N)c2cn[nH]c12 [Compound 194, N-(4-Amino-1H-pyrazolo[4,3-c]pyridin-7-yl)-N′-ethyl-N′-[[2-methyl-4-(pentafluoro-sulfanyl)phenyl]methyl]oxamide]	5 to 50	< 5	< 75	< 100	B (IC50 ratio greater than or equal to 15 fold but lower than 30 fold)
Nc1ncc(NC(=O)C(=O)N(Cc2ccccc2)C2CCCc3ccccc32)c2[nH]ncc12 (racemic) [Compound 141, rac-N-(4-Amino-1H-pyrazolo[4,3-c]pyridin-7-yl)-N′-benzyl-N′-tetralin-1-yl-oxamide]	5 to 50	< 5	< 75	< 100	C (IC50 ratio of less than 15 fold)
CCc1cc(NC(=O)C(=O)N(Cc2ccc(C(F)(F)F)cn2)[C@@H](COC)C2CC2)cnc1N [Compound 7, (R)—N^1-(6-amino-5-ethylpyridin-3-yl)-N^2-(1-cyclopropyl-2-methoxyethyl)-N^2-((5-(trifluoromethyl)pyridin-2-yl)methyl)oxalamide]	> 50	5 to 50	> 125	100 to 1000	B (IC50 ratio greater than or equal to 15 fold but lower than 30 fold)
C[C@H](c1ccc(C(F)(F)C(F)(F)F)cc1F)N(C)C(=O)C(=O)Nc1cnc(N)c2cn[nH]c12 [Compound 188, N-(4-Amino-1H-pyrazolo[4,3-c]pyridin-7-yl)-N′-methyl-N′—[(1R)-1-[2-fluoro-4-(1,1,2,2,2-pentafluoroethyl)phenyl]ethyl]oxamide]	5 to 50	< 5	< 75	< 100	B (IC50 ratio greater than or equal to 15 fold but lower than 30 fold)
CC(C)CN(C(=O)C(=O)Nc1cnc(N)c2cn[nH]c12)[C@@H](C)c1ccccc1 [Compound 165, (S)—N^1-(4-amino-1H-pyrazolo[4,3-c]pyridin-7-yl)-N^2-isobutyl-N^2-(1-phenylethyl)oxalamide]	> 50	5 to 50	75 to 125	< 100	A (IC50 ratio greater than or equal to 30 fold)

More lines, main results first:

IC50 [2] [nM]	IC50 [3] [nM]	IC90 [3] [nM]	Compound	IC50 [1] [nM]	Hap1 MTAP intact/deleted ratio [3]
5 to 50	< 5	< 75	Nc1ncc(NC(=O)C(=O)N(Cc2ccccc2)Cc2ccc(Cl)cn2)c2[nH]ncc12 [Compound 158, N-(4-amino-1H-pyrazolo[4,3-c]pyridin-7-yl)-N′-benzyl-N′-[(5-chloro-2-pyridyl)methyl]oxamide]	< 100	C (IC50 ratio of less than 15 fold)
5 to 50	< 5	< 75	Nc1ncc(NC(=O)C(=O)N(Cc2ccc(C(F)(F)F)cn2)Cc2ncccn2)c2[nH]ncc12 [Compound 25, N-(4-amino-1H-pyrazolo[4,3-c]pyridin-7-yl)-N′-(pyrimidin-2-ylmethyl)-N′-[[5-(trifluoromethyl)-2-pyridyl]methyl]oxamide]	< 100	B (IC50 ratio greater than or equal to 15 fold but lower than 30 fold)
5 to 50	< 5	< 75	Nc1ncc(NC(=O)C(=O)N(Cc2ccccn2)Cc2cccc3ccccc23)c2[nH]ncc12 [Compound 132, N-(4-amino-2H-pyrazolo[4,3-c]pyridin-7-yl)-N′-(1-naphthylmethyl)-N′-(2-pyridylmethyl)oxamide]	< 100	A (IC50 ratio greater than or equal to 30 fold)
5 to 50	< 5	< 75	Cc1c(CN(Cc2ccccn2)C(=O)C(=O)Nc2cnc(N)c3cn[nH]c23)cccc1N(C)C [Compound 124, N1-(4-amino-1H-pyrazolo[4,3-c]pyridin-7-yl)-N^2-(3-(dimethylamino)-2-methylbenzyl)-N^2-(pyridin-2-ylmethyl)oxalamide]	< 100	C (IC50 ratio of less than 15 fold)
5 to 50	< 5	< 75	Cc1ccc(CN(Cc2ccccc2)C(=O)C(=O)Nc2cnc(N)c3cn[nH]c23)nc1 [Compound 179, N-(4-amino-1H-pyrazolo[4,3-c]pyridin-7-yl)-N′-benzyl-N′-[(5-methyl-2-pyridyl)methyl]oxamide]	< 100	A (IC50 ratio greater than or equal to 30 fold)
5 to 50	< 5	< 75	Cc1ccccc1CN(Cc1ccc(C(F)(F)F)cn1)C(=O)C(=O)Nc1cnc(N)c2cn[nH]c12 [Compound 76, N-(4-amino-1H-pyrazolo[4,3-c]pyridin-7-yl)-N′-(o-tolylmethyl)-N′-[[5-(trifluoromethyl)-2-pyridyl]methyl]oxamide]	< 100	C (IC50 ratio of less than 15 fold)
5 to 50	< 5	< 75	CC[C@H](C)CN(Cc1ccccc1C)C(=O)C(=O)Nc1cnc(N)c2cn[nH]c12 [Compound 60, (S)—N^1-(4-amino-1H-pyrazolo[4,3-c]pyridin-7-yl)-N^2-(2-methylbenzyl)-N^2-(2-methylbutyl)oxalamide]	< 100	A (IC50 ratio greater than or equal to 30 fold)
